Assay results from patent US5663197A, “2-(1-hydroxyethyl)-5-hydroxynaphtho[2,3-b]furan-4,9-dione and antitumor agents comprising this compound” (priority 1992, dated 1997).
≈ marks a conversion by molar mass, not a printed value.

How the values were obtained:
[1] = tested on: Human vaginal squamous cell carcinoma A-431 cells; assay: In vitro antitumor test (trypan blue exclusion viable cell count), A-431; assay type: cell-based
Description: (§1) An appropriate amount of NFD was dissolved in DMSO to give a 1.0 mg/ml stock solution, which was diluted as necessary before use.
(§2) The following cells in the late logarithmic phase were harvested after treatment with trypsin (containing 0.25% trypsin and 0.02% EDTA; 37° C., 3 min) and used in the test: human lung adenocarcinoma cell lines A-549, VMRC-LCD and SK-LU-1, human lung squamous cell carcinoma Calu-1 cells, human colon adenocarcinoma WiDr cells, human prostate cancer LNCaP cells, human vaginal squamous cell carcinoma A-431 cells, human cervical carcinoma HeLa cells, human cholangiocarcinoma HuCC-T1 cells, mouse skin cancer melanoma B16 (M4) cells, human pancreatic carcinoma ASPC-1 cells, human neuroblastoma IMR-132 cells, human lung small cell carcinoma SCCH-194 cells, human uninary bladder carcinoma T24 cells, human renal cell carcinoma […] cells, human gastric cancer NUGC-2 cells, human thyroid carcinoma 8305C cells, human hepatoma HUH-7 cells, human ovarian carcinoma TYK-nu cells and human chorio carcinoma BeWo cells. […] These cells were plated onto a 96-well microplate at a density of 5-10×10^3 cells/cm^2 using DMEM or RPMI-1640 medium containing 10% fetal bovine serum and cultured for 24 hours in a conventional manner, after which a pre-determined amount of NFD dissolved in DMSO was added to each well. […]

[2] = tested on: Normal human N6KA fibroblasts; assay: In vitro growth test on normal cells, N6KA fibroblasts; assay type: cell-based
Description: as §1, §2

[3] = tested on: Human uninary bladder carcinoma T24 cells; assay: In vitro antitumor test (trypan blue exclusion viable cell count), T24; assay type: cell-based
Description: as §1, §2

[4] = tested on: Human breast cancer MRK-nu-1 cells; assay: In vitro antitumor test (trypan blue exclusion viable cell count), MRK-nu-1; assay type: cell-based
Description: as §1, §2

[5] = General toxicology in ICR mice; settings: mouse, in vivo, ICR mice (male)
Solubility = assay type: physicochemical
[6] = tested on: Normal human tracheal epithelial cells; assay: In vitro growth test on normal cells, tracheal epithelial cells; assay type: cell-based
Description: as §1, §2

[7] = tested on: carcinogenic promotion (skin papillomas in mice); assay: Inhibition of two-step skin carcinogenesis in mice skin; assay type: in vivo, mouse (female ICR); settings: DMBA initiator, TPA promoter, 20 weeks; FIG. 28 (NFD 85 nmol), FIG. 29 (lapacoal)
Description: Female ICR mice were used as test animals. Fifteen mice were housed in a cage and kept on a commercial pellet diet and drinking water ad libitum until the end of the experiment. The mice were purchased at their age of six-week-old. Dorsal hair of mice was shaved, and next day, 390 nmol of 7,12-dimethylbenz(a)anthracene (DMBA) in 0.1 ml acetone was applied, as an initiator, on the shaved back. One week later, 1.7 nmol of 12-O-tetradecanoylphorbol-13-acetate (TPA) in 0.1 ml acetone was applied, as a promoter, to the same place twice a week. This procedure was repeated for 20 weeks.
Mice were observed once a week for the number of papillomas larger than 1 mm, and the experimental results were given as the percentage of papilloma-bearing mice in each group and the number of papillomas per mouse.

[8] = tested on: Human ovarian carcinoma TYK-nu cells; assay: In vitro antitumor test (trypan blue exclusion viable cell count), TYK-nu; assay type: cell-based
Description: as §1
as §2, with “cells. Suspension cultures of human breast cancer MRK-nu-1 cells, human malignant B-cell lymphoma cells and human chronic myelogenous leukemia K562 cells were used to harvest the cells to be used in the test.” for “cells.”, “well. Cultivation was continued, and the number of viable cells was counted after 24, 48 and 72 hours.” for “well.”
Growth inhibitory action and lethal activity of NFD on various types of malignant tumor cells and normal human cells listed above were evaluated by counting the number of viable cells in each well of the 96-well microplate. […]

[9] = tested on: Human cholangiocarcinoma HuCC-T1 cells; assay: In vitro antitumor test (trypan blue exclusion viable cell count), HuCC-T1; assay type: cell-based
Description: as §1, §2

[10] = 72 h, three days exposure, read-out: LD50 (IC50), 50% growth-inhibitory dose

CC(O)c1cc2c(o1)C(=O)c1cccc(O)c1C2=O (stereo not drawn) [NFD, 2-(1-hydroxyethyl)-5-hydroxynaphtho[2,3-b]furan-4,9-dione]
IC50 [1, 10]: 0.021 µg/mL (≈ 0.0813 µM) | IC (almost complete) ([1]; FIG. 7, read-out: concentration inhibiting growth almost completely): 0.0279 µg/mL | adverse effects on growth of normal cells ([2]; FIG. 24, at concentrations which cause necrosis in tumor cells): no adverse effects | IC50 ([2]; Homo sapiens, Fibroblast, 72 h, N6KA normal fibroblasts, three days exposure, read-out: LD50 (IC50), 50% growth-inhibitory dose): 0.084 µg/mL (≈ 0.325 µM) | IC50 ([3]; T-24, 72 h, T24, three days exposure, read-out: LD50 (IC50), 50% growth-inhibitory dose): 0.021 µg/mL (≈ 0.0813 µM) | IC (almost complete) ([3]; T-24, FIG. 16, read-out: concentration inhibiting growth almost completely): 0.023 µg/mL | IC50 [4, 10]: 0.012 µg/mL (≈ 0.0465 µM) | IC (almost complete) ([4]; FIG. 20, read-out: concentration inhibiting growth almost completely): 0.033 µg/mL | LD50 ([5]; ip, intraperitoneally): 7.3 mg/kg | LD50 ([5]; po, orally): 8.4 mg/kg | solubility in chloroform (Solubility; chloroform): freely soluble | solubility in dimethylsulfoxide (Solubility; dimethylsulfoxide): freely soluble | solubility in water (Solubility; water): slightly soluble | adverse effects on growth of normal cells ([6]; FIG. 25, at concentrations which cause necrosis in tumor cells): no adverse effects | IC50 ([6]; Homo sapiens, Epithelial cell, 72 h, normal tracheal epithelial cells, three days exposure, read-out: LD50 (IC50), 50% growth-inhibitory dose): > 0.055 µg/mL | inhibitory effect on carcinogenic promotion in skin [7]: inhibitory effect | concentration causing necrosis in almost all tumor cells ([8]; FIG. 22): ≥ 40 ng/mL | IC50 ([8]; Homo sapiens, 72 h, TYK-nu, three days exposure, read-out: LD50 (IC50), 50% growth-inhibitory dose): 0.017 µg/mL (≈ 0.0658 µM) | IC (almost complete) ([8]; Homo sapiens, FIG. 22, read-out: concentration inhibiting growth almost completely): 0.02 µg/mL | IC50 ([9]; HuCCT-1, 72 h, HuCC-T1, three days exposure, read-out: LD50 (IC50), 50% growth-inhibitory dose): 0.02 µg/mL (≈ 0.0775 µM) | IC (almost complete) ([9]; HuCCT-1, FIG. 9, read-out: concentration inhibiting growth almost completely): 0.0224 µg/mL
